System: NOMO1
Test: cell viability relative to DMSO control; higher = less cytotoxic
Conditions: 48 h
Summary of the method: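 Viability is a per-plate percentage relative to DMSO wells, with cell-free wells as background. CellTiter-Glo One luminescence was read after 48 h at 37°C on 1536-well plates (5 μl) of NOMO1 or SEM (500 cells/well) or P12-Ichikawa (1000 cells/well) leukemia cells. The cells had been adapted for at least four passages in each medium and pin-dosed with library compounds in DMSO from 47 μM to 0.79 nM in 11 threefold steps.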

[1] = HPLM + 10% dialyzed FBS, 0.000781 µM
[2] = HPLM + 10% dialyzed FBS, 0.00234 µM
[3] = HPLM + 10% dialyzed FBS, 0.00702 µM
[4] = HPLM + 10% dialyzed FBS, 0.0211 µM
[5] = HPLM + 10% dialyzed FBS, 0.0632 µM
[6] = HPLM + 10% dialyzed FBS, 0.19 µM
[7] = HPLM + 10% dialyzed FBS, 0.569 µM
[8] = HPLM + 10% dialyzed FBS, 1.71 µM
[9] = HPLM + 10% dialyzed FBS, 5.12 µM
[10] = HPLM + 10% dialyzed FBS, 15.4 µM
[11] = HPLM + 10% dialyzed FBS, 46.1 µM
[12] = RPMI 5 mM glucose + 10% dialyzed FBS, 0.000781 µM
[13] = RPMI 5 mM glucose + 10% dialyzed FBS, 0.00234 µM
[14] = RPMI 5 mM glucose + 10% dialyzed FBS, 0.00702 µM
[15] = RPMI 5 mM glucose + 10% dialyzed FBS, 0.0211 µM
[16] = RPMI 5 mM glucose + 10% dialyzed FBS, 0.0632 µM
[17] = RPMI 5 mM glucose + 10% dialyzed FBS, 0.19 µM
[18] = RPMI 5 mM glucose + 10% dialyzed FBS, 0.569 µM
[19] = RPMI 5 mM glucose + 10% dialyzed FBS, 1.71 µM
[20] = RPMI 5 mM glucose + 10% dialyzed FBS, 5.12 µM
[21] = RPMI 5 mM glucose + 10% dialyzed FBS, 15.4 µM
[22] = RPMI 5 mM glucose + 10% dialyzed FBS, 46.1 µM
[23] = RPMI 5 mM glucose + 10% FBS, 0.000781 µM
[24] = RPMI 5 mM glucose + 10% FBS, 0.00234 µM
[25] = RPMI 5 mM glucose + 10% FBS, 0.00702 µM
[26] = RPMI 5 mM glucose + 10% FBS, 0.0211 µM
[27] = RPMI 5 mM glucose + 10% FBS, 0.0632 µM
[28] = RPMI 5 mM glucose + 10% FBS, 0.19 µM
[29] = RPMI 5 mM glucose + 10% FBS, 0.569 µM
[30] = RPMI 5 mM glucose + 10% FBS, 1.71 µM
[31] = RPMI 5 mM glucose + 10% FBS, 5.12 µM
[32] = RPMI 5 mM glucose + 10% FBS, 15.4 µM
[33] = RPMI 5 mM glucose + 10% FBS, 46.1 µM

Structure (SMILES)	cell viability [1] [%]	cell viability [2] [%]	cell viability [3] [%]	cell viability [4] [%]	cell viability [5] [%]	cell viability [6] [%]	cell viability [7] [%]	cell viability [8] [%]	cell viability [9] [%]	cell viability [10] [%]	cell viability [11] [%]	cell viability [12] [%]	cell viability [13] [%]	cell viability [14] [%]	cell viability [15] [%]	cell viability [16] [%]	cell viability [17] [%]	cell viability [18] [%]	cell viability [19] [%]	cell viability [20] [%]	cell viability [21] [%]	cell viability [22] [%]	cell viability [23] [%]	cell viability [24] [%]	cell viability [25] [%]	cell viability [26] [%]	cell viability [27] [%]	cell viability [28] [%]	cell viability [29] [%]	cell viability [30] [%]	cell viability [31] [%]	cell viability [32] [%]	cell viability [33] [%]
CO[C@H]1C[C@@H]2CC[C@@H](C)[C@@](O)(O2)C(=O)C(=O)N2CCCC[C@H]2C(=O)O[C@H]([C@H](C)C[C@@H]2CC[C@@H](OP(C)(C)=O)[C@H](OC)C2)CC(=O)[C@H](C)/C=C(\C)[C@@H](O)[C@@H](OC)C(=O)[C@H](C)C[C@H](C)/C=C/C=C/C=C/1C	110	114	109	116	106	113	102	105	96.7	97	94.5	122	113	118	115	117	121	120	125	124	103	120	–	–	–	–	–	–	–	–	–	–	–
N[C@@H](C(=O)N[C@H]1[C@H]2SC\C(=C(/N2C1=O)C(O)=O)Cl)C3=CC=CC=C3	123	124	125	136	150	119	126	108	134	145	135	–	–	–	–	–	–	–	–	–	–	–	–	–	–	–	–	–	–	–	–	–	–
O=[N+]([O-])c1cn2c(n1)OC[C@@H](OCc1ccc(OC(F)(F)F)cc1)C2	–	–	–	–	–	–	–	–	–	–	–	120	141	115	126	145	142	148	118	138	139	120	–	–	–	–	–	–	–	–	–	–	–
Nc1ccccc1NC(=O)c1ccc(CNc2nccc(-c3cccnc3)n2)cc1	111	115	117	118	119	117	105	72.1	23.4	9.43	9.03	108	117	115	119	132	114	106	74.7	24.2	12.2	10.7	90.9	113	103	103	122	114	97.8	83.2	27.2	9.84	8.73
CC(=O)N1CCN(c2ccc(OCc3nn(C)c(C)c3-c3cccc4c(CCCOc5cc(C)c(Cl)c(C)c5)c(C(=O)O)n(Cc5cccnc5)c34)cc2)CC1	111	108	132	114	126	130	120	130	131	120	84.6	115	112	122	135	135	133	139	142	156	137	124	111	115	124	150	130	136	146	126	120	134	94.6
C[C@@H]1C[C@H]2[C@@H]3\C=C(C)/C4=C/C5=C(C[C@]4(C)[C@H]3[C@@H](O)C[C@]2(C)[C@@]1(O)C(=O)COC(C)=O)C=N[N]5C6=CC=CC=C6	116	123	114	113	123	106	106	106	104	108	90	127	121	110	122	125	114	109	108	104	109	100	–	–	–	–	–	–	–	–	–	–	–
O=C/1\C=C(/OC(=C1)/C2=C3SC4=C(SC3=CC=C2)C=CC=C4)N5CCOCC5	93.3	94.6	103	32.3	112	103	122	105	84	90.1	82	81.3	93.6	98.1	33.1	88.2	104	107	99.3	83.7	81.2	86.2	79.8	93.2	91.1	19.4	92	91.9	94.7	96.7	89.1	89.3	90.3
COc1cc2nccc(Oc3ccc(NC(=O)C4(C(=O)Nc5ccc(F)cc5)CC4)cc3)c2cc1OC	113	114	112	116	94.2	101	116	104	93.7	69.8	32.3	102	99.2	110	107	111	98.2	109	98	95.5	71.7	47.1	95.6	124	101	114	103	104	95.1	107	96.2	102	64.8
CCOC(=O)Nc1ccc(NCc2ccc(F)cc2)cc1N	112	120	126	129	116	110	121	107	99.1	65.1	31.5	115	133	119	119	115	123	110	107	107	89.8	33.9	107	112	117	116	117	118	112	113	105	94.3	24.6
COC(=O)N1CCN(Cc2cccc(NC(=O)Nc3ccc(C)nc3)c2F)CC1	115	111	111	104	104	100	100	101	102	82.4	81.9	91.9	92.4	105	104	99.6	93.5	85.6	84	78.1	83.7	81.5	98.5	98.8	95.2	98.8	95.7	85.7	103	84.2	84.1	77.2	77.6
OC[C@H]1O[C@@H](Oc2ccc(O)cc2)[C@H](O)[C@@H](O)[C@@H]1O	88.1	102	95.4	105	95.9	102	79.7	101	86.5	114	104	65.2	74.8	85.4	82.1	82.3	79.6	89.1	94.5	86.1	95.5	93.4	81.4	93.9	87	83.1	86	87.7	98.5	91.5	92.5	90.8	88.9
Fc1cc(-c2cccc3ncc(-c4cnn(C5CCNCC5)c4)nc23)cc(F)c1CN1CCOCC1	111	122	130	132	108	124	135	103	42.6	21.5	16.1	128	115	124	122	125	103	119	103	95.2	54.9	25.9	109	107	119	102	111	116	114	105	84	29.4	18.3
Fc1ccc(C(c2ccc(F)cc2)N2CCN(C/C=C/c3ccccc3)CC2)cc1	115	123	144	135	117	121	104	103	105	112	95.9	–	–	–	–	–	–	–	–	–	–	–	112	111	106	123	113	114	107	107	108	115	104
CCCCCCCCCCCC(CC1OC(=O)C1CCCCCC)OC(=O)C(CC(C)C)NC=O (stereo not drawn)	92.9	105	100	109	110	114	118	114	109	98.8	13.7	92.4	102	107	91.7	107	102	95.1	105	96.4	89.2	37.2	93.5	104	95.3	94.9	114	97.8	102	97.2	100	102	31
Cc1ccc(NC(=O)c2ccc(CN3CCN(C)CC3)cc2)cc1Nc1nccc(-c2cccnc2)n1	95.2	105	114	116	110	116	105	122	104	95.4	109	96.2	100	111	101	105	103	110	94	115	104	117	90.6	103	92.3	112	120	99.6	114	111	104	103	103
CSC1=CC(=CC=C1)NC2=NC3=C(C=N2)/C=C(C(=O)N3C)/C4=C(Cl)C=CC=C4Cl	96.6	114	118	101	119	101	108	107	115	114	108	84.7	95.5	104	91.3	120	118	109	112	111	94	108	96.1	124	128	109	118	101	121	118	103	116	102
ClC1=CC=C(CCCOC/2=N/NC(=O)C(=C2NCC3=CN=CC=C3)/Br)C=C1	124	117	150	115	115	118	97.9	75.4	38.8	15.9	7.76	121	120	127	112	111	109	106	106	66.2	27.8	12.9	–	–	–	–	–	–	–	–	–	–	–
